Experimental data as given in publication PMC7462494, “Novel Bi-heterocycles as Potent Inhibitors of Urease and Less Cytotoxic Agents: 3-({5-((2-Amino-1,3-thiazol-4-yl)methyl)-1,3,4-oxadiazol-2-yl}sulfanyl)-N-(un/substituted-phenyl)propanamides” (Iranian Journal of Pharmaceutical Research : IJPR, 2020).
Like-named read-outs stand apart in the source and are kept apart here.

What was measured:
[1] = biological target: urease (Canavalia ensiformis, UniProt P07374); test: Urease inhibition assay (customized Berthelot assay); type: biochemical; details: for inhibition at 500 µM: read-out: Urease Inhibition, Inhibition (%)
Experimental: This enzyme assay is the customized form of the commonly known Berthelot assay ([23], [24]). […] The contents were pre-incubated at 37 °C for 5 min. 40 µL of urea stock solution (20 mM) was added to each well with incubation for 10 min at 37 °C. It is followed by the addition of 115 µL phenol hypochlorite reagents (freshly prepared by mixing 45 µL phenol with 70 µL of alkali) per well. For color development, incubation was carried out for further 10 min at 37 °C. The absorbance was measured at 625 nm. The percentage enzyme inhibition and IC50 values were calculated using the following formula:
inhibition%=Control-test/Control×100
Where, Control is the total enzyme activity without inhibitor and Test is the activity in the presence of test compound. IC50 values were calculated using the EZ–Fit Enzyme kinetics software (Perrella Scientific Inc. Amherst, US).
Statistical analysis was performed by Microsoft Excel 2010 for all the thrice measured values and the results are presented as mean ± SEM.

[2] = Hemolytic activity (cytotoxicity through hemolysis); type: cell-based; details: bovine, red blood cell (erythrocyte) suspension, pH 7.4, 20 µL compound solution (10 mg/mL) in 180 µL RBCs suspension, room temperature, PBS negative control, Triton positive control
Excerpt: The erythrocytes separated diluted in phosphate buffer saline of pH 7.4 and a suspension was made.

Chain of urease (P07374 whole entry, looked up): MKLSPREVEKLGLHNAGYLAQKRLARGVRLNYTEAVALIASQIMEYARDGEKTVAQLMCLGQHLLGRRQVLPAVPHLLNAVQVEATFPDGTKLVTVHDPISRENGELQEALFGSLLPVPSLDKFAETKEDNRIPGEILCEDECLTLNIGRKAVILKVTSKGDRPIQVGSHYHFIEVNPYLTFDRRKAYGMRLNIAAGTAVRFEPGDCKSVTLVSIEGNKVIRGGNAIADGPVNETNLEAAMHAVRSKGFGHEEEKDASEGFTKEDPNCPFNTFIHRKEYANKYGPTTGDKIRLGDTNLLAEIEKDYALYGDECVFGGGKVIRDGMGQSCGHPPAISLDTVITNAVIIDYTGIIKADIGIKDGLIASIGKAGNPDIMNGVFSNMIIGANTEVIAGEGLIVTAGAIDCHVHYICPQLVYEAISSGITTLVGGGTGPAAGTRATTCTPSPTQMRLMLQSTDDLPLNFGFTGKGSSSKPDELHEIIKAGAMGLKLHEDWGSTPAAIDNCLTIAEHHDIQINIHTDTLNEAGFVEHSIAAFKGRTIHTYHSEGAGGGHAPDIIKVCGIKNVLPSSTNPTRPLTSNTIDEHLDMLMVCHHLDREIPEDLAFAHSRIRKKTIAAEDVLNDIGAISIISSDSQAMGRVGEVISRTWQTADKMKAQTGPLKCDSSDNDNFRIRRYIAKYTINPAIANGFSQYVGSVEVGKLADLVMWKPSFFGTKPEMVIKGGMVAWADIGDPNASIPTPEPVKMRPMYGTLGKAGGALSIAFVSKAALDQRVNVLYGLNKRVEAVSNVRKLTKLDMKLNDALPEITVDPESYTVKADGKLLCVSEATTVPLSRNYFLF

| Structure (SMILES) | melting point [°C] | IC50 [1] [nM] | inhibition at 500 µM [1] [%] | hemolysis at 30 min, 1 mg/mL [2] [%] | Urease Inhibition, Inhibition (%) ([1]; at 0.5 mM, mean ± SEM, n = 3) | IC50 ([1]; mean ± SEM, n = 3, EZ-Fit Enzyme kinetics software, read-out: Urease Inhibition, IC50) [nM] |
| --- | --- | --- | --- | --- | --- | --- |
| Nc1nc(Cc2nnc(SCCC(=O)Nc3ccccc3)o2)cs1 [Compound 7a, 3-({5-[(2-Amino-1,3-thiazol-4-yl)methyl]-1,3,4-oxadiazol-2-yl}sulfanyl)-N-phenylpropanamide] | 190 to 191 | 2450 ± 40 | 98.24 ± 0.08 | 11.5 | – | – |
| Cc1ccccc1NC(=O)CCSc1nnc(Cc2csc(N)n2)o1 [Compound 7b, 3-({5-[(2-Amino-1,3-thiazol-4-yl)methyl)-1,3,4-oxadiazol-2-yl}sulfanyl)-N-(2-methylphenyl)propanamide] | – | 2640 ± 30 | 96.42 ± 0.02 | 7.05 | – | – |
| Cc1cccc(NC(=O)CCSc2nnc(Cc3csc(N)n3)o2)c1 [Compound 7c, 3-({5-[(2-Amino-1,3-thiazol-4-yl)methyl]-1,3,4-oxadiazol-2-yl}sulfanyl)-N-(3-methylphenyl)propanamide] | – | 1320 ± 20 | 98.52 ± 0.05 | 5.16 | – | – |
| Cc1ccc(NC(=O)CCSc2nnc(Cc3csc(N)n3)o2)cc1 [Compound 7d, 3-({5-[(2-Amino-1,3-thiazol-4-yl)methyl]-1,3,4-oxadiazol-2-yl}sulfanyl)-N-(4-methylphenyl)propanamide] | – | 1750 ± 10 | 98.13 ± 0.02 | 7.16 | – | – |
| Cc1ccc(NC(=O)CCSc2nnc(Cc3csc(N)n3)o2)c(C)c1 [Compound 7e, 3-({5-[(2-Amino-1,3-thiazol-4-yl)methyl]-1,3,4-oxadiazol-2-yl}sulfanyl)-N-(2,4-dimethylphenyl)propanamide] | – | 1240 ± 10 | 98.19 ± 0.09 | 6.74 | – | – |
| Cc1ccc(C)c(NC(=O)CCSc2nnc(Cc3csc(N)n3)o2)c1 [Compound 7f, 3-({5-[(2-Amino-1,3-thiazol-4-yl)methyl]-1,3,4-oxadiazol-2-yl}sulfanyl)-N-(2,5-dimethylphenyl)propanamide] | – | 5180 ± 60 | 96.26 ± 0.03 | 6.42 | – | – |
| Cc1cccc(C)c1NC(=O)CCSc1nnc(Cc2csc(N)n2)o1 [Compound 7g, 3-({5-[(2-Amino-1,3-thiazol-4-yl)methyl]-1,3,4-oxadiazol-2-yl}sulfanyl)-N-(2,6-dimethylphenyl)propanamide] | 149 to 150 | 2630 ± 30 | 98.52 ± 0.06 | 7.37 | – | – |
| Cc1ccc(NC(=O)CCSc2nnc(Cc3csc(N)n3)o2)cc1C [Compound 7h, 3-({5-[(2-Amino-1,3-thiazol-4-yl)methyl]-1,3,4-oxadiazol-2-yl}sulfanyl)-N-(3,4-dimethylphenyl)propanamide] | 177 to 178 | 2560 ± 20 | 97.28 ± 0.02 | 5.79 | – | – |
| Cc1cc(C)cc(NC(=O)CCSc2nnc(Cc3csc(N)n3)o2)c1 [Compound 7i, 3-({5-[(2-Amino-1,3-thiazol-4-yl)methyl]-1,3,4-oxadiazol-2-yl}sulfanyl)-N-(3,5-dimethylphenyl)propanamide] | – | 3620 ± 10 | 97.31 ± 0.08 | 5.26 | – | – |
| CCc1ccccc1NC(=O)CCSc1nnc(Cc2csc(N)n2)o1 [Compound 7j, 3-({5-[(2-Amino-1,3-thiazol-4-yl)methyl]-1,3,4-oxadiazol-2-yl}sulfanyl)-N-(2-ethylphenyl)propanamide] | 198 to 199 | 2130 ± 10 | 98.12 ± 0.03 | 6.63 | – | – |
| CCc1ccc(NC(=O)CCSc2nnc(Cc3csc(N)n3)o2)cc1 [Compound 7k, 3-({5-[(2-amino-1,3-thiazol-4-yl)methyl]-1,3,4-oxadiazol-2-yl}sulfanyl)-N-(4-ethylphenyl)propanamide] | – | 2850 ± 50 | 97.43 ± 0.07 | 7.16 | – | – |
| CCOc1ccc(NC(=O)CCSc2nnc(Cc3csc(N)n3)o2)cc1 [Compound 7l, 3-({5-[(2-Amino-1,3-thiazol-4-yl)methyl]-1,3,4-oxadiazol-2-yl}sulfanyl)-N-(4-ethoxyphenyl)propanamide] | – | 2170 ± 20 | 97.25 ± 0.04 | 8.11 | – | – |
| NC(N)=S [Thiourea, reference compound] | – | – | – | – | Thiourea 98.12 ± 0.18% | 21100 |
| CC(C)(C)CC(C)(C)c1ccc(OCCO)cc1 [Triton-X, reference compound] | – | – | – | 89 | – | – |
